Experimental data from article PMC6264553, “Synthesis and In Vitro Protein Tyrosine Kinase Inhibitory Activity of Furan-2-yl(phenyl)methanone Derivatives” (Molecules, 2011).

Legend:
[1] = target: Protein Tyrosine Kinase (PTK); experiment: PTK inhibitory activity, ELISA tyrosine kinase assay with poly-Glu-Tyr substrate; format: biochemical, rat; details: for IC50: tyrosine kinase extracted from rat brain tissue, means of three experiments, NA = not active at 5 μg/mL, read-out: Protein Tyrosine Kinase (PTK) inhibition activity, IC50; for PTK inhibitory activity (in words): in vitro, SAR discussion
Protocol: The activities of PTKs were tested using ELISA. The tyrosine kinase was extracted from brain tissue of rat, and microtiter plates were coated using poly-Glu-Tyr (PGT) as substrates. If the tyrosine residues of PGT were phosphorylated by PTKs, they bound to phospho-specific monoclonal antibody that was labeled specifically with HRP. The absorbance was measured to reflect the activity of PTK.
The phosphorylation assays were performed at 37 °C in a final volume of 40 µL tyrosine kinase. The concentrations of PTKs used to construct calibration curves were as follows: 600, 500, 400, 300, 200 and 100 × 10^−7 U/mL for PTK. A concentration of 500 × 10^−7/μL was used for each inhibitor. Phosphorylation reactions were initiated with the addition of 40 mM ATP (10 μL) into each vessel, and the plate was incubated at 37 °C for 30 min. After completion of reaction, liquid was decanted and the vessels were washed four times with Tween-PBS. One hundred microliters of blocking solution was added to the vessels and incubated at 37 °C for 30 min. After washing the plate with Tween-PBS, anti-phosphotyrosine (50 μL) was added to the vessels and incubated at 37 °C for 30 min. The reaction liquid was decanted and the remaining solution was removed by rinsing four times with Tween-PBS. One hundred μL of HRP coloring agent was added and incubated at 37 °C for 15 min. The reaction was terminated by addition of 1 N sulfuric acid (100 μL /well). The absorbance of the reaction was measured at 450 nm on a microplate reader.

Row | Structure (SMILES) | melting point [°C] | IC50 [1] [µM] | PTK inhibitory activity (in words) [1]
1 | COc1ccc(C(=O)c2ccco2)cc1OC [Compound 3a, (3,4-Dimethoxyphenyl)(furan-2-yl)methanone] | 98 to 100 | – | –
2 | COc1ccc(C(=O)c2ccco2)c(OC)c1O [Compound 3b, Furan-2-yl(3-hydroxy-2,4-dimethoxyphenyl)methanone] | 168 to 170 | – | –
3 | COc1ccc(Br)cc1C(=O)c1ccco1 [Compound 3c, (5-Bromo-2-methoxyphenyl)(furan-2-yl)methanone] | 66 to 70 | – | –
4 | COc1ccc(C(=O)c2ccco2)cc1 [Compound 3d, Furan-2-yl(4-methoxyphenyl)methanone] | 58 to 60 | – | –
5 | O=C(c1ccc(O)c(O)c1)c1ccco1 [Compound 4a, (3,4-Dihydroxyphenyl)(furan-2-yl)methanone] | 132 to 134 | 4.66 | –
6 | O=C(c1ccco1)c1ccc(O)c(O)c1O [Compound 4b, Furan-2-yl(2,3,4-trihydroxyphenyl)methanone] | – | 6.42 | –
7 | O=C(c1ccco1)c1cc(Br)ccc1O [Compound 4c, (5-Bromo-2-hydroxyphenyl)(furan-2-yl)methanone] | 88 to 90 | – | –
8 | COc1ccc(Br)cc1C(=O)c1ccc(Br)o1 [Compound 7b, (5-Bromo-2-methoxyphenyl)(5-bromofuran-2-yl)methanone] | 98 to 100 | – | –
9 | O=C(c1ccc(Br)o1)c1ccc(O)c(O)c1O [Compound 8a, (5-Bromofuran-2-yl)(2,3,4-trihydroxyphenyl)methanone] | 132 to 134 | 5.31 | –
10 | O=C(c1ccc(Br)o1)c1cc(Br)ccc1O [Compound 8b, (5-Bromo-2-hydroxyphenyl)(5-bromofuran-2-yl)methanone] | 82 to 84 | – | –
11 | O=C(c1ccc(O)c(O)c1)c1ccc(Br)o1 [Compound 8c, (5-Bromofuran-2-yl)(3,4-dihydroxyphenyl)methanone] | – | 2.72 | strongest activity
12 | COc1ccc(C(=O)c2cc(Br)c(Br)o2)cc1O [Compound 13, (4,5-Dibromofuran-2-yl)(3-hydroxy-4-methoxyphenyl)methanone] | 107 to 109 | – | –
13 | O=C(c1ccc(O)c(O)c1)c1cc(Br)c(Br)o1 [Compound 14, (4,5-Dibromofuran-2-yl)(3,4-dihydroxyphenyl)methanone] | 184 to 186 | – | no activity
14 | COc1cccc(OC)c1C(=O)c1ccco1 [Compound 17b, (2,6-Dimethoxyphenyl)(furan-2-yl)methanone] | 64 to 66 | – | –
15 | O=C(c1ccco1)c1cccc(O)c1O [Compound 18a, (2,3-Dihydroxyphenyl)(furan-2-yl)methanone] | 64 to 66 | 13.2 | –
16 | O=C(c1ccco1)c1c(O)cccc1O [Compound 18b, (2,6-Dihydroxyphenyl)(furan-2-yl)methanone] | 66 to 68 | 12.7 | –
17 | COc1c(Br)c(C(=O)c2ccco2)c(Br)c(OC)c1OC [Compound 21b, (2,6-Dibromo-3,4,5-trimethoxyphenyl)(furan-2-yl)methanone] | 96 to 98 | – | –
18 | COc1cc(C(=O)c2ccco2)c(Cl)c(OC)c1OC [Compound 21c, (2-Chloro-3,4,5-trimethoxyphenyl)(furan-2-yl)methanone] | 80 to 82 | – | –
19 | COc1c(O)c(C(=O)c2ccco2)cc(Br)c1Br [Compound 21d, (4,5-Dibromo-2-hydroxy-3-methoxyphenyl)(furan-2-yl)methanone] | 102 to 104 | – | –
20 | O=C(c1ccc(O)c(Br)c1)c1ccco1 [Compound 22a, (3-Bromo-4-hydroxyphenyl)(furan-2-yl)methanone] | 100 to 102 | – | –
21 | O=C(c1ccco1)c1c(Br)c(O)c(O)c(O)c1Br [Compound 22b, (2,6-Dibromo-3,4,5-trihydroxyphenyl)(furan-2-yl)methanone] | 148 to 150 | – | no activity
22 | O=C(c1ccco1)c1cc(O)c(O)c(O)c1Cl [Compound 22c, (2-Chloro-3,4,5-trihydroxyphenyl)(furan-2-yl)methanone] | 150 to 152 | 4.62 | –
23 | O=C(c1ccco1)c1cc(Br)c(Br)c(O)c1O [Compound 22d, (4,5-Dibromo-2,3-dihydroxyphenyl)(furan-2-yl)methanone] | 138 to 140 | 9.56 | –
